Experimental findings from patent US6653289B1, “L-arabino-disaccharides of anthracyclines, processes for their preparation, and pharmaceutical compositions containing them” (Menarini Ricerche S.p.A., priority 1999, dated 2003) are described below.

Assay [1] has as its system GLC-4 (pulmonary microcarcinoma). The assay is described as follows: cytotoxicity in vitro on GLC-4. Particulars: read-out: IC50, concentration necessary for 50% inhibition of diseased cells growth, 24-h exposure to the drug. Type of assay: cell-based, human. The text has this:
(§1) (R8=H, R9=R10=R12=OH, R11=NH2) described in patent application WO 95/09173 on lines H460 (pulmonary carcinoma) and GLC-4 (pulmonary microcarcinoma).

In assay [2] the test system is pulmonary microcytoma GLC-4. The assay is described as follows: activity in vivo on human tumour line implanted s.c. in naked mice. The conditions noted are these: GLC-4 s.c. in naked mice, 6 mg/kg every 3-4 days, 5 cycles (total 30 mg/kg); for LCK (Log Cell Kill): T-C/DT×3.32; for TWI % (300 mg), Tumour Weight Inhibition %: determined 7-10 days after last treatment. The method, then:
The activity in vivo of (Ia), compared with that of (V), was also evaluated on a human tumour line implanted s.c. in naked mice (pulmonary microcytoma GLC-4) after administration of 6 mg/kg of drug every 3-4 days, for 5 treatment cycles.
The results obtained are shown in Table 2, which reports the Tumour Weight Inhibition % (TWI% determined 7-10 days after the last treatment) and the Log Cell Kill [LCK in animals treated according to the formula: T-C/DT×3.32, where T and C are the days that tumours take to reach the significant weight fixed in each test. in treated animals (T) and in controls (C)].

Assay [3] has as its system H460 (pulmonary carcinoma). The assay is described as follows: cytotoxicity in vitro on H460. The class given is cell-based. The conditions noted are these: read-out: IC50, concentration necessary for 50% inhibition of diseased cells growth, 24-h exposure to the drug.
Description: as §1

As for `C[C@@H]1O[C@@H](O[C@@H]2[C@H](C)O[C@@H](O[C@H]3C[C@](O)(C(=O)CO)Cc4c(O)c5c(c(O)c43)C(=O)c3ccccc3C5=O)C[C@@H]2O)C[C@H](N)[C@H]1O.Cl` [Ia, 7-O-[2,6-dideoxy-4-O-(2,3,6-trideoxy-3-amino-α-L-arabino-hexopyranosyl)-α-L-lyxo-hexopyranosyl]-4-demethoxy-doxorubicinone chlorhydrate], the IC50 in assay [1] stood at 11 nM. Besides, in assay [2], the “LCK (Log Cell Kill)” value is on record as 1.1 and the “TWI % (300 mg), Tumour Weight Inhibition %” value is recorded as 93%. Besides, the IC50 in assay [3] turned out to be 10 nM.
In the same order, the values of `CC1OC(OC2C(O)CC(OC3CC(O)(C(=O)CO)Cc4c(O)c5c(c(O)c43)C(=O)c3ccccc3C5=O)OC2C)CC(N)C1O.Cl` [V, 7-O-[2,6-dideoxy-4-O-(2,3,6-trideoxy-3-amino-α-L-lyxo-hexopyranosyl)-α-L-lyxo-hexopyranosyl]-4-demethoxy-doxorubicinone chlorhydrate] are 55 nM, 0.4, 60% and 14 nM.
